A short description of data set [1]: AUC (0 to infinity) in Sprague-Dawley rat at 10 mg/kg, po administered as single dose by LC-MS/MS analysis. It counts as ADME, organism-based. On the set-up: dose 10 mg/kg, route oral, time infinity. The following applies: in vivo.
Data set [2] can be described thus: Drug uptake in blood of Sprague-Dawley rat at 5 mg/kg, iv measured at 1 hr by LC-MS/MS analysis. It counts as ADME, organism-based. To be noted: read-out: Drug uptake.
Data set [3] can be described thus: Cmax in Sprague-Dawley rat at 2 mg/kg, iv administered as single dose by LC-MS/MS analysis. It counts as ADME, organism-based. On the set-up: dose 2 mg/kg, route intravenous. The following applies: in vivo.
Data set [4] is described as follows: Tmax in Sprague-Dawley rat at 2 mg/kg, iv administered as single dose by LC-MS/MS analysis. It counts as ADME, organism-based. The following applies: in vivo.
Data set [5] has as its target T1, Phosphatidylinositol 3,4,5-trisphosphate 5-phosphatase 2 (Mus musculus) (UniProt Q6P549).
T1 sequence (whole entry): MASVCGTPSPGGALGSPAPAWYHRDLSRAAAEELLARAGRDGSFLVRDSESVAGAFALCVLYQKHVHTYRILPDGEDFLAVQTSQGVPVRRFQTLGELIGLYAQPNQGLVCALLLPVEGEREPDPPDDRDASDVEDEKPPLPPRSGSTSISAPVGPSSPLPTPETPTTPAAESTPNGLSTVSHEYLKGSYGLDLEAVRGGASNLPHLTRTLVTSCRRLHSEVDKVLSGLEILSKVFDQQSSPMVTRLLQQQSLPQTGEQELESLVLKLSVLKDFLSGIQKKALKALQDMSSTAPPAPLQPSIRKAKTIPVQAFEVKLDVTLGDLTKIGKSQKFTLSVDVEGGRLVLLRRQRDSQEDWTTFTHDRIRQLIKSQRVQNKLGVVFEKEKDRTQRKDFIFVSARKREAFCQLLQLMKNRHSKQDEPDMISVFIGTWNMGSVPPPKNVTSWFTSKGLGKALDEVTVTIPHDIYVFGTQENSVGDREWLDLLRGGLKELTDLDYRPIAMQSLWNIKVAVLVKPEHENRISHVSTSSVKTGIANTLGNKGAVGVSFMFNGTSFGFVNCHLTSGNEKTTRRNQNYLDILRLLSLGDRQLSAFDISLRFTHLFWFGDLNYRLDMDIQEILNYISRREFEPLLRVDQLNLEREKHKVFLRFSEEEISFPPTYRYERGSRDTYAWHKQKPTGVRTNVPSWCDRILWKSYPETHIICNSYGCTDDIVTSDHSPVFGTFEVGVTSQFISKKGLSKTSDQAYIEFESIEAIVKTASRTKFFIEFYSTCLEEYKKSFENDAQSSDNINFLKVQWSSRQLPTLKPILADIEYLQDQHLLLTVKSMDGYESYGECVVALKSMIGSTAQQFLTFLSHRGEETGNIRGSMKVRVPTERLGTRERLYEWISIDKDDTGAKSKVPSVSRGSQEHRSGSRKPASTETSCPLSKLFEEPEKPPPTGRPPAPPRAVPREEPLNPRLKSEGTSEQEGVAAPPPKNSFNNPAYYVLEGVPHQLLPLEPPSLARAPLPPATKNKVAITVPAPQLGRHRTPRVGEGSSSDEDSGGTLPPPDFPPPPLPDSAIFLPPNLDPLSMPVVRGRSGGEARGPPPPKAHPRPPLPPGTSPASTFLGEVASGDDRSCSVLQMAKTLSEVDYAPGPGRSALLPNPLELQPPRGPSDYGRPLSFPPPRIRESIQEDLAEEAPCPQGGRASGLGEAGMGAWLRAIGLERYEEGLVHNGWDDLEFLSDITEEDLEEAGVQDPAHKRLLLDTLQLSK
Nature of the data set: Inhibition of SHIP2 in H2O2-stimulated mouse HT22 cells assessed as decrease in PI(3,4)P2 production at 10 uM incubated for 30 mins followed by H2O2 stimulation for 5 mins in presence of PTEN inhibitor VO-Ohpic trihydrate by ELISA.

Data set [6] can be described thus: Apparent volume of distribution in Sprague-Dawley rat at 2 mg/kg, iv administered as single dose by LC-MS/MS analysis. It counts as ADME, organism-based. To be noted: in vivo, read-out: Vz.
A short description of data set [7]: AUC (0 to t) in Sprague-Dawley rat at 10 mg/kg, po administered as single dose by LC-MS/MS analysis. It counts as ADME, organism-based. To be noted: in vivo.
Data set [8] can be described thus: Drug uptake in brain of Sprague-Dawley rat at 5 mg/kg, iv measured at 1 hr by LC-MS/MS analysis. It counts as ADME, organism-based. To be noted: read-out: Drug uptake.
Data set [9] in a line: Drug uptake in brain of Sprague-Dawley rat at 5 mg/kg, iv measured at 2 hrs by LC-MS/MS analysis. It counts as ADME, organism-based. To be noted: read-out: Drug uptake.
Data set [10] in a line: MRT (0 to t) in Sprague-Dawley rat at 2 mg/kg, iv administered as single dose by LC-MS/MS analysis. It counts as ADME, organism-based. The following applies: in vivo.
The nature of data set [11]: Oral bioavailability in Sprague-Dawley rat at 2 mg/kg, iv administered as single dose by LC-MS/MS analysis. It counts as ADME, organism-based. To be noted: in vivo.
Data set [12] can be described thus: Drug uptake in brain of Sprague-Dawley rat at 5 mg/kg, iv measured at 0.5 hrs by LC-MS/MS analysis. It counts as ADME, organism-based. To be noted: read-out: Drug uptake.
Data set [13] in a line: Cmax in Sprague-Dawley rat at 10 mg/kg, po administered as single dose by LC-MS/MS analysis. It counts as ADME, organism-based. The following applies: in vivo. On the set-up: dose 10 mg/kg, route oral.
Data set [14] in a line: Half life in Sprague-Dawley rat at 2 mg/kg, iv administered as single dose by LC-MS/MS analysis. It counts as ADME, organism-based. To be noted: in vivo.
Data set [15] in a line: Tmax in Sprague-Dawley rat at 10 mg/kg, po administered as single dose by LC-MS/MS analysis. It counts as ADME, organism-based. To be noted: in vivo.
Data set [16] is described as follows: Drug uptake in blood of Sprague-Dawley rat at 5 mg/kg, iv measured at 2 hrs by LC-MS/MS analysis. The following applies: read-out: Drug uptake. It counts as ADME, organism-based.
A short description of data set [17]: Drug uptake in blood of Sprague-Dawley rat at 5 mg/kg, iv measured at 5 hrs by LC-MS/MS analysis. The following applies: read-out: Drug uptake. It counts as ADME, organism-based.
Data set [18] in a line: MRT (0 to infinity) in Sprague-Dawley rat at 10 mg/kg, po administered as single dose by LC-MS/MS analysis. It counts as ADME, organism-based. To be noted: in vivo.

Active and inactive are the calls of the source. The calls are words filed in the database; no cut-off is given here.

Consider `C[C@@H](Oc1cncc(-c2cnc(N)nc2)c1)c1c(Cl)ccc(F)c1Cl`, for which the AUC(0-inf) in data set [1] worked out at 2880 ng·h/mL. Moreover, the concentration at 1 h in data set [2] stood at 1180 ng/mL; in data set [8], 2730 ng/mL. The values for the Cmax in data set [3] and in [13] were 1480 ng/mL and 636 ng/mL, respectively. The Tmax in data set [4] amounted to 4.8 min; in data set [15], 1.75 h. Besides, in [5], the inhibition entry was “Active”. The Vd in data set [6] came out at 2.3 L/kg. The AUC(0-t) in data set [7] came to 2830 ng·h/mL. In addition, the values for the concentration at 2 h in [9] and in data set [16] were 1440 ng/mL and 559 ng/mL, respectively. The mean residence time MRT last in data set [10] was 1.28 h. Also, the bioavailability in data set [11] came out at 33.3%. For the same molecule, the concentration at 0.5 h in [12] stood at 4510 ng/mL. Also, the half-life in data set [14] is 81.6 min. The concentration at 5 h in [17] was 89.4 ng/mL. In data set [18], this molecule registered a mean residence time (MRT inf) of 3.19 h.

These data come from ChEMBL document CHEMBL4270607, “Identification of crizotinib derivatives as potent SHIP2 inhibitors for the treatment of Alzheimer's disease” (Eur J Med Chem, 2018).
